Test results as given in US20210238170A1, “5,5-Difluoro- and 5-Fluoro-5-Methyl-C-Glycoside Derivatives Useful As Dual SGLT1 / SGLT2 Modulators” (Janssen Pharmaceutica NV, priority 2018, published 2021).

Assays:
human SGLT1 = biological target: T1, human SGLT1 (Homo sapiens, UniProt P13866); assay: SGLT1 in vitro assay: Na-dependent 14C-AMG uptake in CHO-K1 cells stably expressing human SGLT1; format: cell-based; details: CHO-K1 cells stably expressing human SGLT1, 14C-AMG uptake; for inhibition at 0.3 µM: read-out: SGLT1 % Inh @ 0.3 μM; for IC50: compounds of formula (I) where R0 is fluoro
T1 construct: expressed in transfected cells
T1 sequence (P13866 1-664): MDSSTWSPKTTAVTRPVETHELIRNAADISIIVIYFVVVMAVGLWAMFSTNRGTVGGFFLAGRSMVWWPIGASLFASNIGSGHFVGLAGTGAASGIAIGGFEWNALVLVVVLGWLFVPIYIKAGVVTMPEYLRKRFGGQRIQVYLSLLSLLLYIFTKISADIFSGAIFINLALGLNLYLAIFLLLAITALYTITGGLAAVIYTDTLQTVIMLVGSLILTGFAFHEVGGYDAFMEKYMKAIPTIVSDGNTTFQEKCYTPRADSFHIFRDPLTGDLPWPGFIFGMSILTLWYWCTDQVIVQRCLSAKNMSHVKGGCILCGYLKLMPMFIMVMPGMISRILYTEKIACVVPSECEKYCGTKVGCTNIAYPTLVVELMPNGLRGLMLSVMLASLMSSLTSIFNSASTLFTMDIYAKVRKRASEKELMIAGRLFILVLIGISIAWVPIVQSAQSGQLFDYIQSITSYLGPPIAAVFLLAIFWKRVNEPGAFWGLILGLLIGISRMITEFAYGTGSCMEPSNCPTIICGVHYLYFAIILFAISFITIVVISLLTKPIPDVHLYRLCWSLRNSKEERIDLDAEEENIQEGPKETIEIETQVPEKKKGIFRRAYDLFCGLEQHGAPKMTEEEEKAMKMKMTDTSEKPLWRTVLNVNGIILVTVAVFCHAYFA
In short: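 CHO-K1 cells stably expressing human SGLT1 or SGLT2, induced with 10 mM Na-butyrate for 24 h. Compounds (0.001–10 μM) in Na+-containing HEPES/Tris buffer pH 7.4 were applied for 10 min, then 14C-AMG ([…]) for 2 h at 37°C; Na-dependent uptake read by scintillation; %-inhibition or IC50.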

SD rats = assay: Oral Glucose Tolerance Test (OGTT) in SD rats: blood glucose excursion AUC and urine glucose excretion; format: in vivo, rat; details: mean ± SE; for response vs control in vivo at 1 mg/kg / response vs control in vivo at 10 mg/kg: Rattus norvegicus, 2 h, n = 8, read-out: 120-min Blood Glucose AUC vs Vehicle (%); for Urine Glucose Excretion (g/0-4 hr): n = 8
Description: Biological Example 2: In Vivo Assay
Oral Glucose Tolerance Test (OGTT) in SD Rats
Overnight fasted SD rats were allocated into vehicle or test compound treatment groups based on their body weights (n=8 in each group). The animals were orally dosed with vehicle or test compound at a volume of 10 ml/kg at 30-minute prior to OGTT. The animals then received an OGTT challenge with 2 g/kg (50% glucose solution at the volume of 4 ml/kg, orally). The animals were immediately transferred into metabolic cages after they were dosed with the glucose. Blood glucose levels were measured at 0 (pre-OGTT), 30, 60, and 120 minutes after OGTT using one-touch Glucometer. Blood glucose excursion AUC (area under the curve of blood glucose) was determined from the blood glucose levels measured at the timepoints.
Table 9 below, presents the measured efficacy of the test compound(s), expressed as the percentage (%) of blood glucose AUC vs that in vehicle group. The data is interpreted such that, the smaller the percentage of blood glucose AUC of compound vs vehicle, the greater the efficacy of the test compound. Urine volume and urine glucose concentrations (tested by using Olympus system with Genzyme diagnostics assay reagent) were measured to determine the urine glucose excretion (UGE) in 4-hr period after OGTT (0-4 hours).

db/db mice = assay: SGLT inhibition evaluated in db/db mice: fed blood glucose AUC and 24-hr urine glucose excretion; format: in vivo, mouse; details: oral dose 10 mg/kg, mean ± SE, n = 8; for 24-hr Blood Glucose AUC vs Vehicle (%): fed
Description: Biological Example 3: In Vivo Assay
SGLT Inhibition Evaluated in db/db Mice
Based on fed blood glucose levels, db/db mice were allocated into either vehicle or test compound treated groups (n=8 in each group). After grouped, the mice were orally dosed with either vehicle or test compound at 0 and 10 mg/kg, in a volume of 10 ml/kg. The mice were then immediately transferred into mouse metabolic cages, after they were dosed. Fed blood glucose levels were determined at multiple timepoints after the animals were treated. Fed blood glucose AUC (area under the curve of blood glucose) was determined from the blood glucose levels measured at the timepoints.
Table 10 below, presents the measured efficacy of the test compound(s), expressed as a percentage (%) of blood glucose AUC vs that in vehicle group. The data is interpreted such that, the smaller the percentage of blood glucose AUC of compound vs vehicle, the greater efficacy of the test compound. Total urine glucose excretion (UGE) over the 24-hr period post treatment was calculated based on urine glucose concentrations and urine volumes at multiple timepoints. Urine glucose was measured using Olympus system with Genzyme diagnostics assay reagent.

| inhibition at 0.3 µM (human SGLT1) [%] | IC50 (human SGLT1) [nM] | Compound | response vs control in vivo at 1 mg/kg (SD rats; oral dose 1 mg/kg) [%] | response vs control in vivo at 10 mg/kg (SD rats; oral dose 10 mg/kg) [%] | Urine Glucose Excretion (g/0-4 hr) (SD rats; oral dose 1 mg/kg) | Urine Glucose Excretion (g/0-4 hr) (SD rats; oral dose 10 mg/kg) | 24-hr Blood Glucose AUC vs Vehicle (%) (db/db mice) | Urine Glucose Excretion (g/24 hr) (db/db mice) |
| --- | --- | --- | --- | --- | --- | --- | --- | --- |
| 76.6 | 34 | COc1ccc(Cc2cc([C@@H]3O[C@H](CO)C(F)(F)[C@H](O)[C@H]3O)c(O)cc2Cl)cc1 [Compound 81, (2S,3R,4R,6R)-2-(4-chloro-2-hydroxy-5-(4-methoxybenzyl)phenyl)-5,5-difluoro-6-(hydroxymethyl)-tetrahydro-2H-pyran-3,4-diol] | 77.5 ± 2.4 | 41 ± 2.7 | 0.099 ± 0.037 | 0.276 ± 0.032 | 55.0 ± 4.6 | – |
| 56.2 | 96 | COc1cc(O)c([C@@H]2O[C@H](CO)C(F)(F)[C@H](O)[C@H]2O)cc1Cc1ccc2c(c1)CCCO2 [Compound 44, (2S,3R,4R,6R)-2-(5-(chroman-6-ylmethyl)-2-hydroxy-4-methoxyphenyl)-5,5-difluoro-6-(hydroxymethyl)tetrahydro-2H-pyran-3,4-diol] | 61.7 ± 2.1 | 39.3 ± 1.7 | 0.002 ± 0.001 | 0.2 ± 0.02 | 48.4 ± 3.4 | 0.55 ± 0.12 |
